Source: patent publication US20070172957A1, “Methods of identifying anti-inflammatory macrolides” (TAISHO PHARMACEUTICAL CO., LTD., priority 2004, published 2007)

Test system: genes predictive for the anti-inflammatory macrolide effect
Test: Genes statistically predictive of Clari response: differentially expressed with Clari but not the inactive macrolides MAA or Josa (Appendix E)
Type: cell-based
From the text: In the case of the above-mentioned (i) related to arachidonic acid biosynthesis, specifically, methods of the embodiment involve assaying whether a test macrolide alters biosynthesis of arachidonic acid, alters the expression or activities of enzymes involved in the biosynthesis or activation of arachidonic acid (e.g., arachidonic acid CoA synthetase, delta-6 desaturase, fatty acid elongase, and delta-5 desaturase, AA-related genes in Tables 2 and 3), or alters the expression of genes identified as predictive for the anti-inflammatory macrolide effect (Appendix E). Assays in which arachidonic acid or gene expression or enzymatic activity is detected can be carried out after contacting a cell with a test macrolide. Any cell line that secretes prostaglandin or produces arachidonic acid can be used. Epithelial and macrophages lines (e.g., A549 or THP-1) are suitable for this purpose; other cell lines can be identified by carrying out assays such as those described in the specific Examples, below. Alternatively, screening assays can be carried out after adding a test macrolide to an in vitro cell system (e.g., a cellular extract or liver microsome preparation) or an in vitro enzyme assay system.

CC[C@H]1OC(=O)[C@H](C)[C@@H](O[C@H]2C[C@@](C)(OC)[C@@H](O)[C@H](C)O2)[C@H](C)[C@@H](O[C@@H]2O[C@H](C)C[C@H](N(C)C)[C@H]2O)[C@](C)(OC)C[C@@H](C)C(=O)[C@H](C)[C@@H](O)[C@]1(C)O [clarithromycin]
group mean, gene DDOST (SpotID 49757, MAA and Josa vs. Clari): 1.08
group mean, gene BCL2L2 (SpotID 49761, MAA and Josa vs. Clari): 1.01
group mean, gene AD022 (SpotID 49767, MAA and Josa vs. Clari): 1.12
mean group, AD022 (SpotID 49767, pooled group mean): 1.10
group mean, gene P4HB (SpotID 49781, MAA and Josa vs. Clari): 1.10
group mean, gene CYC1 (SpotID 49787, MAA and Josa vs. Clari): 0.90
mean group, CYC1 (SpotID 49787, pooled group mean): 0.94
group mean, gene BCL2L2 (SpotID 49794, MAA and Josa vs. Clari): 1.01
mean group, AD022 (SpotID 49800, pooled group mean): 1.09
group mean, gene CDKN2C (SpotID 49815, MAA and Josa vs. Clari): 0.90
group mean, gene CYC1 (SpotID 49820, MAA and Josa vs. Clari): 0.90
group mean, gene LAMP2 (SpotID 49882, MAA and Josa vs. Clari): 1.17
group mean, gene ATP2B4 (SpotID 49915, MAA and Josa vs. Clari): 1.03
mean group, ATP2B4 (SpotID 49915, pooled group mean): 1.06
group mean, gene DHCR24 (SpotID 49922, MAA and Josa vs. Clari): 1.27
group mean, gene KIAA0169 (SpotID 49930, MAA and Josa vs. Clari): 0.95
mean group, RFC1 (SpotID 49947, pooled group mean): 0.93
group mean, gene CCNE2 (SpotID 49967, MAA and Josa vs. Clari): 0.82
group mean, gene BMP6 (SpotID 49981, MAA and Josa vs. Clari): 1.10
group mean, gene VTN (SpotID 49989, MAA and Josa vs. Clari): 0.90
group mean, gene SRC (SpotID 49990, MAA and Josa vs. Clari): 1.17
group mean, gene NFYC (SpotID 50011, MAA and Josa vs. Clari): 0.95
mean group, HIF1A (SpotID 50022, pooled group mean): 0.93
group mean, gene GNB2L1 (SpotID 50049, MAA and Josa vs. Clari): 1.10
mean group, NDUFA2 (SpotID 50050, pooled group mean): 1.02
group mean, gene MBTPS1 (SpotID 50067, MAA and Josa vs. Clari): 1.07
group mean, gene SCOP (SpotID 50079, MAA and Josa vs. Clari): 1.05
mean group, SCOP (SpotID 50079, pooled group mean): 1.04
group mean, gene IDI1 (SpotID 50084, MAA and Josa vs. Clari): 1.32
group mean, SpotID 50085 (gene symbol not given) (SpotID 50085, MAA and Josa vs. Clari): 1.00
group mean, gene CNOT3 (SpotID 50099, MAA and Josa vs. Clari): 0.84
mean group, CNOT3 (SpotID 50099, pooled group mean): 0.86
group mean, gene IRF5 (SpotID 50103, MAA and Josa vs. Clari): 1.01
group mean, gene RRBP1 (SpotID 50135, MAA and Josa vs. Clari): 1.11
group mean, SpotID 50216 (gene symbol not given) (SpotID 50216, MAA and Josa vs. Clari): 1.05
group mean, gene FLJ13868 (SpotID 50222, MAA and Josa vs. Clari): 1.06
group mean, gene HK2 (SpotID 50224, MAA and Josa vs. Clari): 1.14
mean group, IL10RB (SpotID 50267, pooled group mean): 1.08
group mean, gene UQCR (SpotID 50284, MAA and Josa vs. Clari): 1.00
group mean, gene TM7SF2 (SpotID 50294, MAA and Josa vs. Clari): 1.29
group mean, gene CDR2 (SpotID 50302, MAA and Josa vs. Clari): 1.08
group mean, gene MAX (SpotID 50307, MAA and Josa vs. Clari): 1.10
group mean, gene BMP6 (SpotID 50319, MAA and Josa vs. Clari): 1.15
group mean, gene DAD1 (SpotID 50332, MAA and Josa vs. Clari): 1.20
group mean, gene FGFR2 (SpotID 50337, MAA and Josa vs. Clari): 1.08
group mean, gene IKKE (SpotID 50342, MAA and Josa vs. Clari): 1.11
mean group, IKKE (SpotID 50342, pooled group mean): 1.08
group mean, gene LOC51295 (SpotID 50349, MAA and Josa vs. Clari): 0.78
mean group, LOC51295 (SpotID 50349, pooled group mean): 0.84
mean group, CFL1 (SpotID 50351, pooled group mean): 1.00
group mean, gene TFAM (SpotID 50386, MAA and Josa vs. Clari): 0.91
group mean, gene DGCR6L (SpotID 50399, MAA and Josa vs. Clari): 1.17
group mean, gene CHERP (SpotID 50405, MAA and Josa vs. Clari): 0.87
group mean, gene AGPAT1 (SpotID 50412, MAA and Josa vs. Clari): 1.12
mean group, GOCAP1 (SpotID 50421, pooled group mean): 1.10
group mean, gene SIGIRR (SpotID 50452, MAA and Josa vs. Clari): 1.10
group mean, gene MMP15 (SpotID 50464, MAA and Josa vs. Clari): 1.10
group mean, gene CEBPA (SpotID 50474, MAA and Josa vs. Clari): 1.29
mean group, MGP (SpotID 50511, pooled group mean): 0.98
group mean, gene ARHC (SpotID 50513, MAA and Josa vs. Clari): 1.02
mean group, ARHC (SpotID 50513, pooled group mean): 1.00
group mean, gene PRKCBP1 (SpotID 50532, MAA and Josa vs. Clari): 0.94
group mean, gene PTPRT (SpotID 50550, MAA and Josa vs. Clari): 1.08
mean group, BN51T (SpotID 50584, pooled group mean): 1.07
mean group, CKS2 (SpotID 50590, pooled group mean): 0.89
mean group, SpotID 50591 (SpotID 50591 (gene symbol not given), pooled group mean): 1.13
group mean, SpotID 50591 (gene symbol not given) (SpotID 50591, MAA and Josa vs. Clari): 1.17
mean group, SRP19 (SpotID 50601, pooled group mean): 1.06
group mean, gene PDIR (SpotID 50639, MAA and Josa vs. Clari): 1.10
group mean, gene PROS1 (SpotID 50643, MAA and Josa vs. Clari): 1.11
mean group, BET1 (SpotID 50645, pooled group mean): 1.01
group mean, gene COPB2 (SpotID 50654, MAA and Josa vs. Clari): 1.12
group mean, gene MAX (SpotID 50659, MAA and Josa vs. Clari): 1.10
group mean, gene GNB5 (SpotID 50689, MAA and Josa vs. Clari): 1.19
group mean, gene PRKDC (SpotID 50736, MAA and Josa vs. Clari): 0.90
mean group, PRKDC (SpotID 50736, pooled group mean): 0.92
group mean, gene AD022 (SpotID 50738, MAA and Josa vs. Clari): 1.14
mean group, AD022 (SpotID 50738, pooled group mean): 1.10
